Experimental data: the NIST ThermoML archive (doi:10.1021/acs.jced.8b00979)
Numbers after ± are expanded uncertainties.

Columns and labels:
[1] = 100 kPa, Liquid; for viscosity: Capillary tube (Ostwald / Ubbelohde) method; for mass density: Vibrating tube method
[2] = xn = mol fraction of the nth substance listed; details: 100 kPa, Liquid, x1 = 1; for viscosity: Capillary tube (Ostwald / Ubbelohde) method; for mass density: Vibrating tube method

CCCCCO [pentan-1-ol]
[1]
Details	mass density [kg/m3]	viscosity [mPa·s]
288.15 K	818.56 ± 0.79	4.698 ± 0.19
293.15 K	814.92 ± 0.79	4.043 ± 0.16
298.15 K	811.26 ± 0.79	3.501 ± 0.14
303.15 K	807.57 ± 0.78	3.028 ± 0.12
308.15 K	803.86 ± 0.78	2.671 ± 0.11
313.15 K	800.11 ± 0.78	2.335 ± 0.094
318.15 K	796.32 ± 0.77	2.052 ± 0.083
323.15 K	792.48 ± 0.77	1.81 ± 0.073
328.15 K	788.61 ± 0.76	1.607 ± 0.065

CCCC(C)O (stereo not drawn) [pentan-2-ol] + CCC(C)CO
[2]
Details	mass density [kg/m3]	viscosity [mPa·s]
288.15 K	813.34 ± 0.79	5.057 ± 0.2
293.15 K	809.38 ± 0.78	4.174 ± 0.17
298.15 K	805.35 ± 0.78	3.398 ± 0.14
303.15 K	801.24 ± 0.78	2.82 ± 0.11
308.15 K	797.05 ± 0.77	2.336 ± 0.094
313.15 K	792.78 ± 0.77	1.99 ± 0.08
318.15 K	788.42 ± 0.77	1.706 ± 0.069
323.15 K	783.99 ± 0.76	1.472 ± 0.06
328.15 K	779.46 ± 0.76	1.306 ± 0.053

CCCC(C)O (stereo not drawn) [pentan-2-ol]
[1]
Details	mass density [kg/m3]	viscosity [mPa·s]
288.15 K	813.34 ± 0.79	5.057 ± 0.2
293.15 K	809.38 ± 0.78	4.174 ± 0.17
298.15 K	805.35 ± 0.78	3.398 ± 0.14
303.15 K	801.24 ± 0.78	2.82 ± 0.11
308.15 K	797.05 ± 0.77	2.336 ± 0.094
313.15 K	792.78 ± 0.77	1.99 ± 0.08
318.15 K	788.42 ± 0.77	1.706 ± 0.069
323.15 K	783.99 ± 0.76	1.472 ± 0.06
328.15 K	779.46 ± 0.76	1.306 ± 0.053

CCCCCO [pentan-1-ol] + CCC(C)CO
[2]
Details	mass density [kg/m3]	viscosity [mPa·s]
288.15 K	818.56 ± 0.79	4.698 ± 0.19
293.15 K	814.92 ± 0.79	4.043 ± 0.16
298.15 K	811.26 ± 0.79	3.501 ± 0.14
303.15 K	807.57 ± 0.78	3.028 ± 0.12
308.15 K	803.86 ± 0.78	2.671 ± 0.11
313.15 K	800.11 ± 0.78	2.335 ± 0.094
318.15 K	796.32 ± 0.77	2.052 ± 0.083
323.15 K	792.48 ± 0.77	1.81 ± 0.073
328.15 K	788.61 ± 0.76	1.607 ± 0.065

CCCCCO [pentan-1-ol] + CCCC(C)O
[2]
Details	mass density [kg/m3]	viscosity [mPa·s]
288.15 K	818.56 ± 0.79	4.698 ± 0.19
293.15 K	814.92 ± 0.79	4.043 ± 0.16
298.15 K	811.26 ± 0.79	3.501 ± 0.14
303.15 K	807.57 ± 0.78	3.028 ± 0.12
308.15 K	803.86 ± 0.78	2.671 ± 0.11
313.15 K	800.11 ± 0.78	2.335 ± 0.094
318.15 K	796.32 ± 0.77	2.052 ± 0.083
323.15 K	792.48 ± 0.77	1.81 ± 0.073
328.15 K	788.61 ± 0.76	1.607 ± 0.065

CCC(C)CO (stereo not drawn) [2-methyl-1-butanol]
[1]
Details	mass density [kg/m3]	viscosity [mPa·s]
288.15 K	823.35 ± 0.8	6.439 ± 0.26
293.15 K	819.64 ± 0.79	5.3 ± 0.21
298.15 K	815.85 ± 0.79	4.501 ± 0.18
303.15 K	812.12 ± 0.79	3.825 ± 0.15
308.15 K	808.29 ± 0.78	3.265 ± 0.13
313.15 K	804.41 ± 0.78	2.783 ± 0.11
318.15 K	800.47 ± 0.78	2.379 ± 0.096
323.15 K	796.47 ± 0.77	2.06 ± 0.083
328.15 K	792.41 ± 0.77	1.787 ± 0.072
